According to patent US6596712B2, “Treatment of carcinomas using squalamine in combination with other anti-cancer agents or modalities” (Genaera Corporation, priority 1996, dated 2003):

How the values were obtained:
human NHE3 = target: T1, human NHE3 (Homo sapiens, UniProt P48764); test: NHE activity in PS 120 fibroblasts transfected with human NHE3 (BCECF pH change rate); assay type: cell-based
T1 construct: expressed in transfected cells; host or cells: PS 120 NHE-deficient fibroblasts
Procedure: The following describes the test used to determine that squalamine inhibits NHE3, but not NHE1 or NHE2. NHE deficient fibroblast cells (PS 120) transfected with an individual human NHE gene were loaded with a pH sensitive dye 2′7′-bis(2-carboxyethyl)-5,6-carboxyfluorescein (BCECF). NHE activity was measured by spectrofluorometric methods using this dye and by amiloride sensitive isotopic ^22Na^+cellular uptake. The cells were acidified by exposure to ammonium chloride in the absence of sodium to eliminate sodium and deactivate the proton pumps. The ammonium chloride was washed out by exposing the cells to tetramethyl ammonium chloride in bicarbonate free medium. […] Sodium then was added back at various concentrations (see the abscissa of FIGS. 5a and 5b) to drive the antiporters (human NHE3 in FIG. 5a and human NHE1 in FIG. 5b). The antiporters were driven at different rates, as evidenced by the cellular pH change rate, depending on the amount of sodium added.
As noted above, it has been concluded that squalamine inhibits NHE3 and not NHE1. […] Such inhibitors affect only the absolute number of protons that can be secreted by the cell (i.e., “Vmax”), if one looks at the kinetic characteristics of the inhibition. […] Note the following Table 1, which correlates to data collected in the test of FIG. 5a.

[1] = target: T2, rabbit NHE3 with 76 C-terminal amino acids removed (Oryctolagus cuniculus, UniProt P26432); test: Rabbit NHE3 with the 76 C-terminal amino acids removed; assay type: cell-based
T2 construct: expressed in transfected cells
T2 sequence (P26432 30-756): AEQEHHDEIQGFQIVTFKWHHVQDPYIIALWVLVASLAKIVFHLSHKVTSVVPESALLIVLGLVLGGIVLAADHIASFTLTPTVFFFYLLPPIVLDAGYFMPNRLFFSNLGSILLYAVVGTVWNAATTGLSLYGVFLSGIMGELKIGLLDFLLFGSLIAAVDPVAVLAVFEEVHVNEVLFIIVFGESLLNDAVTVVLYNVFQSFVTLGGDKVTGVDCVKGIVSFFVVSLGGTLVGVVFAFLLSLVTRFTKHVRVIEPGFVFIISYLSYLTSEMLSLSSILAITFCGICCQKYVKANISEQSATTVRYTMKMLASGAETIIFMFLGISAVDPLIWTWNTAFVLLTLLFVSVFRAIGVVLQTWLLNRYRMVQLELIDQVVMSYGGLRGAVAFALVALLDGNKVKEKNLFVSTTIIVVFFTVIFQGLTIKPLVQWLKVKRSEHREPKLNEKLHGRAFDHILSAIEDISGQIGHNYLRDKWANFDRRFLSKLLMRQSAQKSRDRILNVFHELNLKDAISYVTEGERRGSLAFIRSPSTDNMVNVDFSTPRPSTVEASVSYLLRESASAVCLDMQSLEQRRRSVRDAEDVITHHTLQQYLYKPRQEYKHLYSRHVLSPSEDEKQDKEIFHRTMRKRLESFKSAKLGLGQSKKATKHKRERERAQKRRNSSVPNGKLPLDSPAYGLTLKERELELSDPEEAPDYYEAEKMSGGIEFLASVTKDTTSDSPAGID
Source text: This NHE3 inhibiting activity of squalamine has been mapped to the 76 C-terminal amino acids on the NHE3 molecule. […] Thus, the 76 C-terminal amino acids of NHE3 are the site of inhibition by squalamine.

[2] = tested on: 9L and C6 rat glioma cells, human H80 glioma cells, VX2 rabbit carcinoma cells; test: Proliferation of tumor cell lines; assay type: cell-based
Procedure: In conducting this in vitro analysis, the following cell lines were tested: (a) bovine retinal endothelial cells; (b) 9L and C6 rat glioma cells; (c) human H80 glioma cells; and (d) VX2 rabbit carcinoma cells (the same type as the tumors implanted in the rabbit corneal micropocket assay test described above). The endothelial mitogen which was used in this analysis was VEGF at a concentration of 20 ng/ml.
The cells were allowed to attach overnight to tissue culture plates containing an optimized growth media. Following attachment, the cells were exposed to solvent only or 5 to increasing concentrations of squalamine (0, 10, 20, 30, 60, and 90 μg squalamine/ml). Cell growth was counted daily for three days using a Coulter Counter. A total of 10,000 cells per well were plated and each experimental concentration was tested in quadruplicate. The results were then averaged. The bovine retinal endothelial cells were grown and treated in an identical manner to the other cell lines, except that the growth of these cells was measured after the addition of 20 ng/ml of human recombinant VEGF to the cells prior to the squalamine treatment.
Percentage endothelial cell growth inhibition (%I) was determined by the following equation: [formula]

[3] = Squalamine toxicity test in rats; assay type: in vivo; details: 20 mg/kg/day i.p. for more than 30 days; maintained up to 200 days
Procedure: A squalamine toxicity test was performed in another animal model. Conventional cytotoxic chemical compounds are quite toxic. […] For this reason, it is administered only one time to a patient. The use of BCNU is described on pages 304 and 305 of Calabresi in Medical Oncology, supra. In order to test the toxicity of squalamine, a group of rats was given a daily squalamine dose of 20 mg/kg/day (i.p.) for more than 30 days and maintained for up to 200 days following dosing.

[4] = tested on: human MX-1 breast cancer line; assay type: in vivo
Procedure: These documents each are entirely incorporated herein by reference. Squalamine was examined as adjunctive therapy following a single 200 mg/kg dose of cyclophosphamide. The cyclophosphamide was injected on day 14 following implantation of the tumor, at a time when the tumors measured 65-125 μl. […] The animals were then randomized to three treatment arms (each n=27): vehicle dosing only (Intralipid); squalamine given 10 mg/kg/day in Intralipid; and squalamine given 20 mg/kg/day in Intralipid for five days a week. Animals whose tumors exceeded 2 grams at any time during the experiment were euthanized. The experiment was continued for 90 days after initiating squalamine treatment to ensure that only mice experiencing long-term cures were still alive.

[5] = tested on: murine Lewis lung adenocarcinoma; test: Lung metastases of subcutaneous Lewis lung carcinoma; assay type: in vivo, C57BL/6 mice; details: day 20; squalamine 20 mg/kg/day s.c.; cyclophosphamide 125 mg/kg i.p. days 7, 9, 11; cisplatin 10 mg/kg i.p. day 7
Procedure: The murine Lewis lung adenocarcinoma was implanted subcutaneously in the hind-leg of male C57BL/6 mice and allowed to grow for one week. Groups of mice were then left untreated or treated with either squalamine (20 mg/kg/day, s.c.), cyclophosphamide (125 mg/kg, i.p. on days 7, 9 and 11), cisplatin (10 mg/kg, i.p. on day 7), the combination of squalamine and cyclophosphamide, or the combination of squalamine and cisplatin. On day 20, the animals were sacrificed, and the mean number of lung metastases were determined for each group.

T1 sequence (P48764 26-834): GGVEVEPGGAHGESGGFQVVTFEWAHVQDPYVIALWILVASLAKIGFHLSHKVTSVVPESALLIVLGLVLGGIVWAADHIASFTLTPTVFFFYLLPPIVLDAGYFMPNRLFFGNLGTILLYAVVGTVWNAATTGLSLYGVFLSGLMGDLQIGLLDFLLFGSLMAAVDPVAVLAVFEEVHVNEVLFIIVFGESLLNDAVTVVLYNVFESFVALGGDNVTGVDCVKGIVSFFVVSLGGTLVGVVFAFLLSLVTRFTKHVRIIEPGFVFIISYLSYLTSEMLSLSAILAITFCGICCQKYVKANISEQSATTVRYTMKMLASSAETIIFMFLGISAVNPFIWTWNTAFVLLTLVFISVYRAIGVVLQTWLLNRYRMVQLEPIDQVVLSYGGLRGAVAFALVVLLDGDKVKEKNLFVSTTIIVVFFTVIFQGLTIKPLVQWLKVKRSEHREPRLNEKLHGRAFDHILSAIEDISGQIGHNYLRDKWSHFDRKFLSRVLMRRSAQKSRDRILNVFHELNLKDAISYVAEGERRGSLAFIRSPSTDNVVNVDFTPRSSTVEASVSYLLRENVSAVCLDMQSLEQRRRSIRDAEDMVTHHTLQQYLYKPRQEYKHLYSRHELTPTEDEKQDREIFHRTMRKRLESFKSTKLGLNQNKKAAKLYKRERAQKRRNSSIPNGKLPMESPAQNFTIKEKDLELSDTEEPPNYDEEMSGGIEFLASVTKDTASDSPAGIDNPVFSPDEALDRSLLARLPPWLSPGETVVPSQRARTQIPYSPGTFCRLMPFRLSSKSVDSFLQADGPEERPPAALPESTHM

SMILES: CC(C)[C@@H](CC[C@@H](C)[C@H]1CC[C@H]2[C@@H]3[C@H](O)C[C@H]4C[C@@H](NCCCNCCCCN)CC[C@]4(C)[C@H]3CC[C@]12C)OS(=O)(=O)O [Squalamine, squalamine]
- effect on human NHE3 antiporter (pH change rate) (human NHE3; 7 μg/ml squalamine, acid loaded cells): inhibits human NHE3
- time before NHE3 inhibition effect was observed (human NHE3; transfected cells): at least 30 minutes
- effect on activity of NHE3 lacking the 76 C-terminal amino acids [1]: virtually no effect
- growth of H80, C6 and VX2 cell lines as percentage of control ([2]; 30 μg/ml, 1, 2 and 3 days (FIG. 9)): not dramatically affected
- cell proliferation by all tumor lines ([2]; 24 and 48 hours, up to 30 μg/ml): statistically unaffected
- toxicity, health of animals [3]: remained healthy
- rate of progression of the breast tumors ([4]; squalamine 10 mg/kg/day after single 200 mg/kg cyclophosphamide, all times examined): significant (P<0.01) inhibition in the rate of progression of the breast tumors
- progression of the breast tumors ([4]; squalamine 20 mg/kg/day after single 200 mg/kg cyclophosphamide, only at 30 days post-initiation): significant (P<0.05) delay in progression of the breast tumors
- long-term cure rate vs cyclophosphamide alone ([4]; squalamine 20 mg/kg/day for five weeks after cyclophosphamide, 90 days): doubled the long-term cure rate
- tolerability of high dose ([4]; squalamine 20 mg/kg/day, discontinued after five weeks): animal weight loss and potential toxicity concerns
- mean number of lung metastases [5]: reduced the number of metastases
